{"source": "patent US10617679B2", "about": "“Deuterated compounds and medical uses thereof” (JINGLUWEIDAI INFORMATION CONSULTING SERVICE (BEIJING) CO. …, priority 2016, dated 2020)", "key": {"[1]": {"test_system": "Wistar rats", "experiment": "Evaluation of subacute toxicity (14 days, intragastric)", "assay_type": "in vivo", "settings": "40 mg/kg intragastric once a day for 14 days", "experimental": "Male Wistar rats were randomly divided into groups with 10 rats in each group and weighed. A certain concentration of a test sample was ground and suspended in a 0.5% sodium carboxymethyl cellulose solution. The sodium carboxymethyl cellulose suspension containing 40 mg/kg of the test compound and a blank sodium carboxymethyl cellulose suspension as a control were intragastrically administered, once a day for 14 consecutive days. After the last administration, the rats were fasted but had free access to drinking water for 12 hours, and then anesthetized. Their blood samples were obtained from the abdominal aortas. According to SOPB093 “Standard Operating Procedures for Serum Preparation” in National Beijing Center for Drug Safety Evaluation and Research, serum was prepared for the determination of blood biochemical and immunological indicators; according to SOPB032 “Preparation of vacuum tubes with EDTA anticoagulation”, EDTA anticoagulation was prepared for the general blood routine tests."}, "[2]": {"test_system": "rat formalin model", "experiment": "Analgesic effects of intragastric administration in a rat formalin model", "assay_type": "in vivo, SD rats", "settings": "mean ± SD; for Reaction time for phase I: licking time 0-5 min after formalin; for Reaction time for Phase II: licking time 15-30 min after formalin", "experimental": "SD rats (male, weight 160-180 g) were randomly divided into groups with 6 rats in each group. After the rats were intragastrically administered different doses separately, they were placed in PVC observation boxes for habituation. After 30 min, the rats were injected subcutaneously with 20 μL of 2.7% formalin solution into the plantar surface of the left hind paws, and quickly put back in the PVC observation boxes for observation. The length of time the rats spent licking the injected-formalin paws at the early response (0-5 min, phase I) and the late response (15-30 min, Phase II) was recorded, and the analgesic activities of the test compounds were evaluated according to the length of time the rats spent licking during the period of observation. The experimental data were expressed as mean±standard deviation. The shorter the licking time, the better the analgesic effect of the compound."}, "[3]": {"test_system": "blood pressure in rats", "experiment": "Effects on blood pressure in rats", "assay_type": "in vivo, SD rats", "experimental": "(§1) SD rats (male, weight 160-180 g) were fasted for 12 hours before administration but had free access to drinking water. The rats were randomly divided into groups. They were anesthetized with an intraperitoneal injection of 50-60 mg/kg dose of sodium pentobarbital. Each rat was fixed on the back on the surgical table. The skin was cut from the center of the neck, and an incision of about 2.5 cm was made. The subcutaneous tissue and the median muscle were separated; the trachea was fully exposed; and the endotracheal intubation was performed. The subcutaneous tissue was separated from front to back on the right side; the right common carotid artery, the vagus nerve and the sympathetic nerve were exposed; and the carotid artery cannulation was performed. Finally, the endotracheal tube and the carotid artery cannula were respectively connected to a respiration transducer and a blood pressure transducer, and then connected to a multifunctional physiological recorder. At 30 minutes after surgery, the rats were intragastrically administrated. Heart rate and blood pressure were measured at different time points after administration."}, "[4]": {"test_system": "heart rate in rats", "experiment": "Effects on heart rate in rats", "assay_type": "in vivo, SD rats", "experimental": "as §1"}, "[5]": {"test_system": "oxycodone-induced place preference in rats", "experiment": "Inhibition of oxycodone-induced place preference in rats", "assay_type": "in vivo, SD rats", "settings": "day 10, within 15 minutes", "experimental": "SD rats (male, weight 160-180 g) were placed in conditioned place preference (CPP) training boxes, where the partition door between the boxes was open. Time the rats spent in each of the boxes was recorded within 15 min in order to determine the natural tendency of the rats. The rats were then randomly divided into groups with 10 rats in each group according to the amount of time spent in the white box. The white box was a drug box, and the black box was a box with the absence of the drug. After intragastric administration with a test compound for 40 minutes, the rats were injected subcutaneously with oxycodone (2.5 mg/kg, s.c.) or saline, and immediately placed in the white box or the black box to be trained for 45 minutes, once a day for 9 consecutive days. On the 10th day, the rats were placed in the training boxes with the partition door open. The time the rats spent in the white box was recorded within 15 minutes to evaluate effects on place preference in the rats."}, "[6]": {"test_system": "rat chronic sciatic nerve compression neuralgia model", "experiment": "Analgesic effects of intragastric administration in a rat chronic sciatic nerve compression neuralgia model", "assay_type": "in vivo, SD rats", "settings": "pain threshold 1 hour after administration", "experimental": "SD rats (male, weight 160-180 g) were anesthetized using sodium pentobarbital (40 mg/kg), of which the sciatic nerves were separated in the middle segment of the right hind limbs. In the anterior segment of the sciatic nerve to be bifurcated, the sciatic nerve was separated from the surrounding tissue using a sterile glass hook. Four rings were loosely ligated with sterile chrome gut (No. 4, 0.15 mm in diameter) by an interval of 1 to 2 mm. Topically sprinkled with penicillin powder. The muscle tissue and skin were sutured. The rats were placed in a cage with cork dust. In the sham surgery group, the sciatic nerve was only exposed, and the other treatments were the same as described above. The rats after surgery were placed in a metal cage. […] The weight of the filament was recorded and set to be the threshold (in g). Meanwhile, the number of foot-lifting response to the 10 stimulations of the fiber filaments of different weights was recorded, and the highest threshold was set at 26 g.\n5-6 rats in each group were intragastrically administered and the pain thresholds were measured 1 hour after administration. Statistical analysis of the thresholds was performed using non-parametric Wilcoxon 2-Sample Test and Kruskal-Wallis Test, and the data was analyzed with SASS data processing software. Analgesic percent (%)=(pain threshold after drug treatment−pain threshold before drug treatment)/(maximal analgesia threshold−pain threshold before drug treatment)[…]."}, "[7]": {"settings": "20 mg/kg intragastric, time point 0"}, "[8]": {"settings": "20 mg/kg intragastric, time point 30"}, "[9]": {"settings": "20 mg/kg intragastric, time point 60"}, "[10]": {"settings": "20 mg/kg intragastric, time point 90"}, "[11]": {"settings": "20 mg/kg intragastric, time point 120"}, "[12]": {"settings": "20 mg/kg intragastric, time point 180"}, "[13]": {"settings": "40 mg/kg intragastric, time point 0"}, "[14]": {"settings": "40 mg/kg intragastric, time point 30"}, "[15]": {"settings": "40 mg/kg intragastric, time point 60"}, "[16]": {"settings": "40 mg/kg intragastric, time point 90"}, "[17]": {"settings": "40 mg/kg intragastric, time point 120"}, "[18]": {"settings": "40 mg/kg intragastric, time point 180"}}}
{"smiles": "COc1cc2c(cc1OC)[C@@H]1Cc3ccc(OC)c(OC)c3CN1CC2", "note": "[THP, L-tetrahydropalmatine, reference compound]", "values": [{"measurement": "ALT", "setting": "[1]; rat", "result": "160.0 ± 70.6", "unit": "U/L"}, {"measurement": "AST", "setting": "[1]; rat", "result": "216.8 ± 91.6", "unit": "U/L"}, {"measurement": "histopathological examination of liver", "setting": "[1]; result in words", "result": "vacuolar degeneration of hepatocytes"}, {"measurement": "plasma ALT and AST versus control group", "setting": "[1]; result in words", "result": "significant increase"}, {"measurement": "Reaction time for phase I", "setting": "[2]; 20 mg/kg intragastric", "result": "86.8 ± 37.3", "unit": "s"}, {"measurement": "Reaction time for Phase II", "setting": "[2]; 20 mg/kg intragastric", "result": "185.2 ± 39.7", "unit": "s"}, {"measurement": "Reaction time for phase I", "setting": "[2]; 40 mg/kg intragastric", "result": "40.6 ± 28.3", "unit": "s"}, {"measurement": "Reaction time for Phase II", "setting": "[2]; 40 mg/kg intragastric", "result": "97.5 ± 33.6", "unit": "s"}, {"measurement": "Blood pressure", "setting": "[3]; [7]", "result": "111.5 ± 11.5", "unit": "mmHg"}, {"measurement": "Blood pressure", "setting": "[3]; [8]", "result": "109.4 ± 20.6", "unit": "mmHg"}, {"measurement": "Blood pressure", "setting": "[3]; [9]", "result": "105.00 ± 28.21", "unit": "mmHg"}, {"measurement": "Blood pressure", "setting": "[3]; [10]", "result": "105.1 ± 20.0", "unit": "mmHg"}, {"measurement": "Blood pressure", "setting": "[3]; [11]", "result": "112.7 ± 19.3", "unit": "mmHg"}, {"measurement": "Blood pressure", "setting": "[3]; [12]", "result": "113.3 ± 18.3", "unit": "mmHg"}, {"measurement": "Blood pressure", "setting": "[3]; [13]", "result": "114.2 ± 14.6", "unit": "mmHg"}, {"measurement": "Blood pressure", "setting": "[3]; [14]", "result": "98.0 ± 30.1", "unit": "mmHg"}, {"measurement": "Blood pressure", "setting": "[3]; [15]", "result": "81.63 ± 28.8", "unit": "mmHg"}, {"measurement": "Blood pressure", "setting": "[3]; [16]", "result": "79.00 ± 28.2", "unit": "mmHg"}, {"measurement": "Blood pressure", "setting": "[3]; [17]", "result": "91.6 ± 24.7", "unit": "mmHg"}, {"measurement": "Blood pressure", "setting": "[3]; [18]", "result": "97.3 ± 14.5", "unit": "mmHg"}, {"measurement": "Heart rate", "setting": "[4]; [7]", "result": "399.3 ± 32.6", "unit": "BTM"}, {"measurement": "Heart rate", "setting": "[4]; [8]", "result": "377.1 ± 52.3", "unit": "BTM"}, {"measurement": "Heart rate", "setting": "[4]; [9]", "result": "387.3 ± 50.5", "unit": "BTM"}, {"measurement": "Heart rate", "setting": "[4]; [10]", "result": "399.8 ± 60.7", "unit": "BTM"}, {"measurement": "Heart rate", "setting": "[4]; [11]", "result": "408.8 ± 55.9", "unit": "BTM"}, {"measurement": "Heart rate", "setting": "[4]; [12]", "result": "429.8 ± 25.5", "unit": "BTM"}, {"measurement": "Heart rate", "setting": "[4]; [13]", "result": "391.8 ± 32.9", "unit": "BTM"}, {"measurement": "Heart rate", "setting": "[4]; [14]", "result": "372.1 ± 46.5", "unit": "BTM"}, {"measurement": "Heart rate", "setting": "[4]; [15]", "result": "329.0 ± 63.2", "unit": "BTM"}, {"measurement": "Heart rate", "setting": "[4]; [16]", "result": "340.0 ± 71.4", "unit": "BTM"}, {"measurement": "Heart rate", "setting": "[4]; [17]", "result": "372.0 ± 64.6", "unit": "BTM"}, {"measurement": "Heart rate", "setting": "[4]; [18]", "result": "400.0 ± 30.5", "unit": "BTM"}, {"measurement": "Time spent in the drug box (Mean ± S)", "setting": "[5]; test dose 10 mg/kg intragastric + oxycodone 2.5 mg/kg s.c.", "result": "253.23 ± 77.14", "unit": "s"}, {"measurement": "Time spent in the drug box (Mean ± S)", "setting": "[5]; test dose 20 mg/kg intragastric + oxycodone 2.5 mg/kg s.c.", "result": "157.04 ± 60.6", "unit": "s"}, {"measurement": "Analgesic percent", "setting": "[6]; 20 mg/kg intragastric", "result": 27.41, "unit": "%"}, {"measurement": "Analgesic percent", "setting": "[6]; 40 mg/kg intragastric", "result": 68.36, "unit": "%"}]}
